Experimental data published in patent US20110319392A1, “Thiazole Sulfonamide And Oxazole Sulfonamide Kinase Inhibitors” (priority 2009, published 2011).
Structures can show the parent of a compound that is named as a salt.

How the values were obtained:
SK-MEL-28 tumor cells = assay: Cell growth inhibition assay (CellTiter-Glo), SK-MEL-28; assay type: cell-based, Human; settings: 3 days incubation
How it was run: (§1)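 Readout was CellTiter-Glo luminescence (total ATP, surrogate for cell number) after 3-day exposure at 37° C, 5% CO2 to 1:3 serial compound dilutions in 0.2% final DMSO. Seeding was 500 cells/well; IC50 derived by 4-parameter fit relative to vehicle-treated wells.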

Colo205 tumor cells = assay: Cell growth inhibition assay (CellTiter-Glo), Colo205; assay type: cell-based, Human; settings: 3 days incubation
How it was run: as §1

SK-MEL-3 tumor cells = assay: Cell growth inhibition assay (CellTiter-Glo), SK-MEL-3; assay type: cell-based, Human; settings: for IC50: Homo sapiens, SK-MEL3
How it was run: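 Cells plated at 500 cells/well in their growth media, dosed next day with nine-step 1:3 compound dilutions (final DMSO 0.2%), then incubated 3 days at 37° C, 5% CO2. Total ATP read by CellTiter-Glo luminescence as a surrogate for cell number; IC50 interpolated from 4-parameter fit versus DMSO controls.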

ErbB2 = biological target: T1, ErbB2 (Homo sapiens, UniProt P04626); assay: ErbB-2 substrate phosphorylation assay (HTRF); assay type: biochemical
T1 construct: made in house; host or cells: baculovirus expression system
How it was run: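 Baculovirus-expressed EGFR (0.8 nM) or ErbB2 (10 nM) in enzyme mix, preincubated 1 h at 20 °C with compound (0.00027–47.6 μM final), then 90 min at 20 °C with substrate mix of 20 μM ATP, 0.8 uM biotinylated Peptide C, MnCl2, MOPS pH 7.5. Phosphotyrosine by HTRF; pIC50 reported.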

T1 sequence (P04626 23-1255): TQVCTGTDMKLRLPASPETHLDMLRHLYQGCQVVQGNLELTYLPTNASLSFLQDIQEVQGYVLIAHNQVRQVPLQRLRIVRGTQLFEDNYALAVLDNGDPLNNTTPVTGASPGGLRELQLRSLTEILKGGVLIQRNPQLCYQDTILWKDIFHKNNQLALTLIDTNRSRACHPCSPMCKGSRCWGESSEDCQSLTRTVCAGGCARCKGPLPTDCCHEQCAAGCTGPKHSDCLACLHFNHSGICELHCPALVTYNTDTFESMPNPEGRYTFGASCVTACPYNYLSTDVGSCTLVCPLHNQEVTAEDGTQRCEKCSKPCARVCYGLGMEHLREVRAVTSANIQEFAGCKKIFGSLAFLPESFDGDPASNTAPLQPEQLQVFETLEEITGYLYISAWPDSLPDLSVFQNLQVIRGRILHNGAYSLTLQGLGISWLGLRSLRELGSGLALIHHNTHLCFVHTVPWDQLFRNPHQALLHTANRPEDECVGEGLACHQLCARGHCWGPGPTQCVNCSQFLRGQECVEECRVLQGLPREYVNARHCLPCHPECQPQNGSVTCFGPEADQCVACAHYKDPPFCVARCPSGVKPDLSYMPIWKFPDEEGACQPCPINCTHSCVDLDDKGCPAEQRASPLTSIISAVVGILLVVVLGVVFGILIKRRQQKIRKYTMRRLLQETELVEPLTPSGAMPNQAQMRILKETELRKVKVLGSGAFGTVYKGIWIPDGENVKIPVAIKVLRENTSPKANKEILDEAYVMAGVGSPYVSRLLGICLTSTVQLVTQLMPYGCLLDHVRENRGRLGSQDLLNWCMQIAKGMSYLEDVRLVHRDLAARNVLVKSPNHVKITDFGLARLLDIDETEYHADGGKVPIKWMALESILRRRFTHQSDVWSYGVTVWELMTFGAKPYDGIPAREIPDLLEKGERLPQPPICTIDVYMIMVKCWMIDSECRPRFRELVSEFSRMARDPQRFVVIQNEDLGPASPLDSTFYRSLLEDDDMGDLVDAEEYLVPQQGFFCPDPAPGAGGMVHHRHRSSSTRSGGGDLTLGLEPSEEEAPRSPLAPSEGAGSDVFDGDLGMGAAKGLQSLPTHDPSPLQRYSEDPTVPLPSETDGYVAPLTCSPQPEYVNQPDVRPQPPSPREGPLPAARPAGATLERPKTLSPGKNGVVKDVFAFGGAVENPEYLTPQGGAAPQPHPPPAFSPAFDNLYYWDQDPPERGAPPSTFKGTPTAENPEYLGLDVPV

SMILES | IC50 (SK-MEL-28 tumor cells; Homo sapiens, SK-MEL-28, 72 h) [nM] | IC50 (Colo205 tumor cells; Homo sapiens, COLO 205, 72 h) [nM] | IC50 (SK-MEL-3 tumor cells) [nM] | IC50 (ErbB2) [nM] | Activity in SK-MEL-3 Tumor Cells (SK-MEL-3 tumor cells) | IC50 (SK-MEL-28 tumor cells) [nM] | IC50 (Colo205 tumor cells) [nM]
COc1cc(N2CCN(CCS(C)(=O)=O)CC2)c(C)cc1Nc1nccc(-c2sc(C(C)(C)C)nc2-c2cccc(NS(=O)(=O)c3c(F)cccc3F)c2)n1 [Example 120] | 100 to 1000 | < 100 | < 100 | < 100 |  |  | 
CN(C)c1nc(-c2ccc(F)c(NS(=O)(=O)c3c(F)cccc3F)c2)c(-c2ccnc(Nc3ccc(N4CCN(S(C)(=O)=O)CC4)nc3)n2)s1 [Example 112] | 100 to 1000 | 100 to 1000 | 100 to 1000 | 100 to 1000 |  |  | 
CC(=O)N1CCN(c2ccc(Nc3nccc(-c4sc(C(C)C)nc4-c4cccc(NS(=O)(=O)c5cn(C)cn5)c4)n3)cn2)CC1 [Example 36] | 100 to 1000 | 100 to 1000 | 100 to 1000 | > 1000 |  |  | 
COc1cc(N2CCC(N3CCN(CCS(C)(=O)=O)CC3)CC2)ccc1Nc1nccc(-c2sc(C(C)C)nc2-c2cccc(NS(=O)(=O)c3c(F)cccc3F)c2)n1 [Example 20, 2,6-Difluoro-N-{3-[2-(1-methylethyl)-5-(2-{[2-(methyloxy)-4-(4-{4-[2-(methylsulfonyl)ethyl]-1-piperazinyl}-1-piperidinyl)phenyl]amino}-4-pyrimidinyl)-1,3-thiazol-4-yl]phenyl}benzenesulfonamide] | < 100 | < 100 | 100 to 1000 | < 100 |  |  | 
COc1ccc(S(=O)(=O)Nc2cccc(-c3nc(C(C)C)sc3-c3ccnc(Nc4ccc(N5CCOCC5)nc4)n3)c2)cn1 [Example 49] | < 100 | < 100 | < 100 | > 1000 |  |  | 
CC(=O)N1CCN(c2ccc(Nc3nccc(-c4sc(C(C)C)nc4-c4cccc(NS(=O)(=O)c5ccccc5F)c4)n3)cn2)CC1 [Example 12, N-{3-[5-(2-{[6-(4-Acetyl-1-piperazinyl)-3-pyridinyl]amino}-4-pyrimidinyl)-2-(1-methylethyl)-1,3-thiazol-4-yl]phenyl}-2-fluorobenzenesulfonamide] | < 100 | < 100 | < 100 | 100 to 1000 |  |  | 
CC(C)c1nc(-c2cccc(NS(=O)(=O)c3c(F)cccc3F)c2)c(-c2ccnc(Nc3ccc(N4CCN(CCS(C)(=O)=O)CC4)c(F)c3)n2)s1 [Example 16, 2,6-Difluoro-N-{3-[5-{2-[(3-fluoro-4-{4-[2-(methylsulfonyl)ethyl]-1-piperazinyl}phenyl)amino]-4-pyrimidinyl}-2-(1-methylethyl)-1,3-thiazol-4-yl]ohenyl}benzenesulfonamide hydrochloride] | < 100 | < 100 | < 100 | 100 to 1000 |  |  | 
CC(C)c1nc(-c2cccc(NS(=O)(=O)c3c(F)cccc3F)c2F)c(-c2ccnc(Nc3ccc(N4CCOCC4)nc3)n2)s1 [Example 123] | < 100 | < 100 | < 100 | > 1000 |  |  | 
CC(=O)N1CCN(c2ccc(Nc3nccc(-c4oc(C(C)C)nc4-c4cccc(NS(=O)(=O)c5c(F)cccc5F)c4)n3)cn2)CC1 [Example 56] | < 100 | < 100 | < 100 | > 1000 |  |  | 
O=S(=O)(Nc1cccc(-c2nc(N3CCOCC3)sc2-c2ccnc(Nc3ccc(N4CCOCC4)nc3)n2)c1Cl)c1c(F)cccc1F [Example 146] | < 100 | < 100 | < 100 | > 1000 |  |  | 
CC(C)c1nc(-c2ccnc(NS(=O)(=O)c3c(F)cccc3F)c2)c(-c2ccnc(Nc3ccc(N4CCOCC4)nc3)n2)s1 [Example 32, 2,6-Difluoro-N-{4-[2-(1-methylethyl)-5-(2-{[6-(4-morpholinyl}-3-pyridinyl]amino}-4-pyrimidinyl)-1,3-thiazol-4-yl]-2-pyridinyl}benzenesulfonamide] | < 100 | < 100 | < 100 | > 1000 |  |  | 
CC(C)c1nc(-c2ccc(F)c(NS(=O)(=O)c3c(F)cccc3F)c2)c(-c2ccnc(Nc3ccc(N4CCC(C#N)CC4)nc3)n2)s1 [Example 24, N-{5-[5-(2-{[6-(4-Cyano-1-piperidinyl)-3-pyridinyl]amino}-4-pyrimidinyl)-2-(1-methylethyl)-1,3-thiazol-4-yl]-2-fluorophenyl}-2,6-difluorobenzenesulfonamide] | < 100 | < 100 | 100 to 1000 | 100 to 1000 |  |  | 
COCCN1CCN(c2ccc(Nc3nccc(-c4sc(C(C)C)nc4-c4cccc(NS(=O)(=O)c5ccccc5)c4)n3)cn2)CC1 [Example 6, N-[3-(2-(1-Methylethyl)-5-{2-[(6-{4-[2-(methyloxy)ethyl]-1-piperazinyl}-3-pyridinyl)amino]-4-pyrimidinyl}-1,3-thiazol-4-yl)phenyl]benzenesulfonamide] | < 100 | < 100 | < 100 | 100 to 1000 |  |  | 
CCOc1ccc(Nc2nccc(-c3sc(C(C)C)nc3-c3ccc(F)c(NS(=O)(=O)c4c(F)cccc4F)c3)n2)cc1N1CCN(CCF)CC1 [Example 98] | 100 to 1000 | 100 to 1000 | 100 to 1000 | < 100 |  |  | 
Cc1cc(Nc2nccc(-c3sc(C(C)C)nc3-c3ccc(F)c(NS(=O)(=O)c4c(F)cccc4F)c3)n2)ccn1 [Example 116] | < 100 | < 100 | 100 to 1000 | 100 to 1000 |  |  | 
Cc1nc(-c2cccc(NS(=O)(=O)c3c(F)cccc3F)c2)c(-c2ccnc(Nc3ccc(N4CCOCC4)nc3)n2)s1 [Example 133] | < 100 | < 100 | < 100 | > 1000 |  |  | 
Cc1cc(Nc2nccc(-c3sc(C(C)(C)C)nc3-c3cccc(NS(=O)(=O)c4c(F)cccc4F)c3F)n2)ccn1 [Example 159] | < 100 | < 100 | < 100 | 100 to 1000 |  |  | 
CCNc1nc(-c2cccc(NS(=O)(=O)c3ccccc3)c2)c(-c2ccnc(Nc3ccc(OCCN4CCCC4)c(F)c3)n2)s1 [Example 1, N-(3-(2-(Ethylamino)-5-{2-[(3-fluoro-4-[[2-(1-pyrrolidinyl)ethyl]oxy}phenyl)amino]-4-pyrimidinyl}-1,3-thiazol-4-yl)phenyl]benzenesulfonamide] | 100 to 1000 | 100 to 1000 |  | 100 to 1000 | ++ (activity of between 100 nM and 1 μM in SK-MEL-3 tumor cells) |  | 
CS(=O)(=O)c1cccc(Nc2nccc(-c3sc(N4CCOCC4)nc3-c3cccc(NS(=O)(=O)c4c(F)cccc4F)c3Cl)n2)c1 [Example 145] | < 100 | < 100 | < 100 | > 1000 |  |  | 
CCNc1nc(-c2cccc(NS(=O)(=O)c3ccccc3)c2)c(-c2ccnc(Nc3ccc(OCCN4CCCC4)c(F)c3)n2)s1 [Example 65] |  |  | 100 to 1000 | < 100 |  | 100 to 1000 | 100 to 1000
CCc1nc(-c2cccc(CNS(=O)(=O)c3ccccc3)c2)c(-c2ccnc(Nc3ccc(N4CCOCC4)c(F)c3)n2)s1 [Example 34] | 100 to 1000 | 100 to 1000 |  | 100 to 1000 | + (activity of >1 μM in SK-MEL-3 tumor cells) |  | 
COc1ccc(Nc2nccc(-c3sc(C(C)C)nc3-c3cccc(NS(=O)(=O)c4ccccc4)c3)n2)cc1N1CCN(CCC#N)CC1 [Example 9, N-{3-[5-(2-{[3-[4-(2-Cyanoethyl)-1-piperazinyl]-4-(methyloxy)phenyl]amino}-4-pyrimidinyl)-2-(1-methylethyl)-1,3-thiazol-4-yl]phenyl}benzenesulfonamide] | < 100 | < 100 | < 100 | < 100 |  |  | 
O=S(=O)(Nc1cc(-c2nc(N3CCCC3)oc2-c2ccnc(Nc3ccc(N4CCN(CCF)CC4)c(F)c3)n2)ccc1F)c1c(F)cccc1F [Example 114] | 100 to 1000 | 100 to 1000 |  | 100 to 1000 | + (activity of >1 μM in SK-MEL-3 tumor cells) |  | 
O=S(=O)(Nc1cccc(-c2nc(N3CCCC3)sc2-c2ccnc(Nc3ccc(N4CCN(CCF)CC4)c(F)c3)n2)c1)c1c(F)cccc1F [Example 21, 2,6-Difluoro-N-{3-[5-[2-({3-fluoro-4-[4-(2-fluoroethyl)-1-piperazinyl]phenyl}amino)-4-pyrimidinyl]-2-(1-pyrrolidinyl)-1,3-thiazol-4-yl]phenyl}benzenesulfonamide] | < 100 | < 100 | < 100 | < 100 |  |  | 
